Test results taken from publication PMC8869333, “Alpha-Glucosidase and Alpha-Amylase Inhibitory Activities, Molecular Docking, and Antioxidant Capacities of Plectranthus ecklonii Constituents” (Antioxidants, 2022).

How the values were obtained:
[1] = biological target: T1, alpha-glucosidase (Saccharomyces cerevisiae, UniProt P53341); assay: Alpha-glucosidase inhibitory activity (pNPG substrate, absorbance 405 nm); format: biochemical
T1 construct: purchased Sigma-Aldrich
Method: The organic solvents used in this study were supplied by Merck, Cape Town, South Africa. The NMR spectra were carried out on an Avance 400 MHz spectrometer (Bruker, Rheinstetten, Germany) using deuterated chloroform. Preparative HPLC was utilized for the purification of compounds using HPLC-grade methanol and distilled water.
The reaction was stopped by adding 50 μL of sodium carbonate Na2CO3 (0.1 M). […] Each experiment was repeated three times.

[2] = Trolox equivalent absorbance capacity (TEAC) assay; details: Trolox equivalents; stock solution 1 mg/mL
Method: The TEAC assay was carried out in accordance with the method described previously. The stock solutions, which contained 7 mM of ABTS and 140 mM of K2S2O8, were prepared and kept at −2 °C. The working solution was then prepared by adding 88 μL of K2S2O8 solution to 5 mL of ABTS solution. The two solutions were mixed and allowed to react for 24 h at room temperature in the dark. Trolox was used as a standard, with concentrations ranging between 0 and 500 μM. After 24 h, the ABTS mix solution was diluted with ethanol to read a start-up absorbance (control) of approximately 2.0 (±0.1). The stock solution (1 mg/mL) of a methanol extract and purified compounds (25 μL) were allowed to react with 300 μL of ABTS in the dark at room temperature for 30 min. The absorbance was read at 734 nm at 25 °C in the plate reader. The results are expressed as μM Trolox equivalents per milligram dry weight (μM/TE/g) of the test samples.

[3] = Ferric-ion reducing antioxidant power (FRAP) assay; details: ascorbic acid equivalents; stock solution 1 mg/mL
Method: The FRAP assay was carried out in accordance with the method described previously. In a 96-well plate, 10 μL of the stock solution (1 mg/mL w/v) of the isolated compounds (1–3) was mixed with 300 μL of FRAP reagent. The FRAP reagent was prepared by mixing (10:1:1, v/v/v) of acetate buffer (300 mM, pH 3.6), tripyridyl triazine (TPTZ) (10 mM in 40 mM HCl), and FeCl3.6H2O (20 mM). Incubation commenced at room temperature for 30 min, and the plate was read at a wavelength of 593 nm in a Multiskan spectrum plate reader (Thermo Fisher Scientific). L-Ascorbic (Sigma-Aldrich, Cape Town, South Africa) was used as a standard, with concentrations varying between 0 and 1000 μM. Further dilutions were carried out with the samples that were highly concentrated, and such dilution factors were recorded and used for calculations of the affected samples. The results are expressed as μM ascorbic acid equivalents per milligram dry weight (μM AAE/g) of the test samples.

[4] = Oxygen radical absorbance capacity (ORAC) assay; details: Trolox equivalents; stock solution 1 mg/mL
Method: ORAC assay was conducted according to the previous method with slight modifications. The method measured the antioxidant scavenging capacity of thermal decomposition generated by peroxyl radical of 2,2-azobis (2-amino-propane) dihydrochloride (AAPH) as peroxyradical (ORACROO^.) generator. The loss of fluorescence of fluorescein (probe) was an indication of the extent of its oxidation through reaction with the peroxyl radical. The protective effect of an antioxidant was measured by assessing the fluorescence area under the curve (AUC) plot relative to that of blank in which no antioxidant was present. The analyzer was programmed to record the fluorescence of fluorescein every 2 min after AAPH was added. The fluorescein solution and sample were added in the wells of an illuminated 96-well plate, and 12 μL of each sample in a stock solution of 1 mg/mL was combined with 138 μL of a fluorescein working solution, followed by the addition of 50 μL of 150 mg of AAPH prepared in situ in 6 mL phosphate buffer. Absorbance was measured with a Fluoroskan spectrum plate reader with the excitation wavelength set as 485 nm and the emission wavelength at 530 nm. A calibration curve was used, using a Trolox stock solution of concentration in the range of 83–417 μM (R^2 = 0.9514). The ORAC values were calculated using a regression equation (Y = a + bX + Cx^2) between Trolox concentration (Y in μM) and the net area under the fluorescence decay curve (X). ORAC values are expressed as μMTE/mg of a test sample. Samples without perfect curve were further diluted, and the dilution factors were used for the calculation of such samples.

[5] = cited from earlier work

T1 sequence (P53341 whole entry): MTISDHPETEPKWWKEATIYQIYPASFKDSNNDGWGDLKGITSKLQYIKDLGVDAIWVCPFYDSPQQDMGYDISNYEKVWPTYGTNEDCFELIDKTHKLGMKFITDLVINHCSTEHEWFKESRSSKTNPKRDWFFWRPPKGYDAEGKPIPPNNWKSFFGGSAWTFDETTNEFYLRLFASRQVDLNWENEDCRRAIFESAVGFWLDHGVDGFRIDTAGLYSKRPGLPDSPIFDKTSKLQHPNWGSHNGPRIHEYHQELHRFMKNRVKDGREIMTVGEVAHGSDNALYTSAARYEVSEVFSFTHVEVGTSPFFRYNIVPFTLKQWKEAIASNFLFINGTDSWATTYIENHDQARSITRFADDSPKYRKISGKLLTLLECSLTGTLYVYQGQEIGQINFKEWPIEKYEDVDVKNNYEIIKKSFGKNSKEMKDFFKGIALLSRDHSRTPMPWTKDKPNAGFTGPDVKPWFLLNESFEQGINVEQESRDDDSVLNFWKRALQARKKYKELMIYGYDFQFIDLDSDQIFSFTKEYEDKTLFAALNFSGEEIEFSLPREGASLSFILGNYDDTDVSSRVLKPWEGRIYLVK

Row | Molecule | IC50 [1] | TEAC [2] | FRAP [3] | ORAC [4] | IC50 ([5]; read-out: DPPH radical scavenging IC50) | EC50 ([5]; read-out: DPPH radical scavenging EC50)
1 | COc1cc(C(=O)OC2CC(C)(C)C3=CC=C4C=C(C(C)C)C(=O)C(O)=C4C3(C)C2)ccc1O (centres unmarked) [Compound 3, parvifloron G] | 88.9 µM | 3526.1 ± 0.6 µM TE/g | 1455.4 ± 2.0 µM AAE/g |  |  | 
2 | O=C(O[C@@H]1Cc2c(O)cc(O)cc2O[C@@H]1c1cc(O)c(O)c(O)c1)c1cc(O)c(O)c(O)c1 [EGCG, epigallocatechin gallate, reference compound] |  | 4146.4 ± 19.8 µM TE/g | 7524.1 ± 4.9 µM AAE/g | 3976.82 ± 3.8 µM TE/g |  | 
3 | parvifloron D [Compound 1] |  | 470.3 ± 2.2 µM TE/g | 1043.9 ± 2.6 µM AAE/g | 3942.9 ± 7.1 µM TE/g | 1300 ± 100 µM | 
4 | parvifloron F [Compound 2] |  | 1069.3 ± 2.4 µM TE/g | 1155.5 ± 2.3 µM AAE/g | 1726.1 ± 2.6 µM TE/g |  | 131 µM
